This note sets out measurements from patent publication US6388127B1, “Process for preparing cyclic thioamides” (Pfizer INC, priority 1999, dated 2002).

In the case of `O=C1CSCCN1c1ccc(Cl)c(Cl)c1` [Example 1, 4-(3,4-Dichloro-phenyl)-thiomorpholin-3-one], the melting point (in general, the temperature of the solid-liquid transition) lay in the range of 81 to 83 °C.
